From EP0430194A2, “Aryl-alkyl-azoles substituted with many times unsaturated groups, process for their preparation and their use” (HOECHST AKTIENGESELLSCHAFT, priority 1989, dated 1991)

Legend:
[1] = tested on: Trichophyton mentagrophytes; assay: Local in vivo efficacy, dermal treatment of guinea pigs infected with Trichophyton mentagrophytes; settings: Dermal 5 x 0,1 %; for Mykosen (Durchmesser in mm) Mittelwert (Standardabweich.): Meerschweinchen (Pirbright white), from day 3 after infection, n = 6; for Reduktion in %: Meerschweinchen, relative to Bifonazol = 100,0
Excerpt: Als Beispiel für die hohe lokale in vivo Wirksamkeit der erfindungsgemäßen Verbindungen werden Behandlungsergebnisse an Experimenten mit Trichophyton mentagrophytes infizierten Labortieren angeführt.
Zur Feststellung der lokalen Wirksamkeit wurde jeweils ein 450 - 500 g schweres Meerschweinchen (Stamm Pirbright white) mit 1,5 x 10⁴ Konidien/Tier in die Epidermis verteilt auf 6 Infektionspunkte, infiziert.
Die Behandlung der Tiere erfolgte dermal ab dem 3. Tag nach der Infektion an 5 aufeinander folgenden Tagen durch Aufbringen einer 0,1 %igen Präparatlösung auf 6 Infektionsstellen der Rückenseite.
Neben den mit den erfindungsgemäßen Substanzen behandelten Tieren wurde ein Tier mit der Referenzsubstanz Bifonazol behandelt, ein Tier blieb nach der Infektion unbehandelt.

[2] = tested on: freigesetzten Exoenzyme von Candida albicans; assay: In vitro enzyme test: inhibition of released exoenzymes of Candida albicans blastoconidia on egg-yolk agar plate; format: cell-based; settings: Stamm 200/175
Excerpt: Als Beispiel für die Hemmung der pathogenen Phase dimorpher Hefezellen werden Ergebnisse eines in-vitro-Enzymtests angeführt, in welchen die prozentuale Hemmung freigesetzter Exoenzyme, insbesondere freigesetzter Lysophospholipase (Phospholipase B), als Maß für die Wirksamkeit bestimmt wird.
Zur Feststellung der Enzymhemmung wurde eine Suspension von Candida albicans Blastokonidien (Stamm 200/175), wobei die Keimdichte photometrisch auf eine Extinktion von 0,5 (500 nm) eingestellt war, mit Präparatelösung bzw. zur Kontrolle mit Lösungsmittellösung vermischt und zwar • a) 100 µl Präparatelösung (Suspension) + 900 µl Keimsuspension • b) 100 µl Lösungsmittel + 900 µl Keimsuspension
Jeweils 5 µl der 30 min bei 21°C inkubierten Blastokonidiensuspension wurden auf eine Agarplatte (Sabourand Agar mit Zusatz von 8 % Eigelb, 1 M NaCl, 5 mM CaCl₂) aufgetropft.
Die so beimpfte Platte wurde 3 Tage bei 37°C bebrütet.
Die Auswertung erfolgte derart, daß • 1. der Durchmesser (mm) der Candida albicans-Kolonie (behandelt und unbehandelt) sowie • 2. der Gesamtdurchmesser von Kolonie und Trübungshof, welcher durch Exoenzyme verursacht wurde (behandelt und unbehandelt) bestimmt wurde.
Aus der Bestimmung des Quotienten von Präparate- und Kontrollgruppe ergab sich ein Wert, der als Maß für die Enzymaktivität anzusehen war.

[3] = tested on: Phospholipase aus Leberzellen; settings: literature, Biochem. Pharmacol. 34, 521-24, 1985; cited from earlier work
[4] = Präparat-Konzentration 10 µg/ml
[5] = Präparat-Konzentration 50 µg/ml
[6] = Präparat-Konzentration 100 µg/ml

Row | Compound | Mykosen (Durchmesser in mm) Mittelwert (Standardabweich.) [1] | Reduktion in % [1] | Prozentuale Hemmung der freigesetzten Exoenzyme von Candida albicans in vitro [2, 4] | Prozentuale Hemmung der freigesetzten Exoenzyme von Candida albicans in vitro [2, 5] | Prozentuale Hemmung der freigesetzten Exoenzyme von Candida albicans in vitro [2, 6] | Hemmwirkung gegenüber Phospholipase aus Leberzellen [3]
1 | CC(C)=CCC/C(C)=C\COC(Cn1ccnc1)c1ccc(Cl)cc1Cl (racemic) [Beispiel 2, (R,S)-1-(2,4-Dichlorphenyl)-1-(cis-3,7-dimethyl-2,6-octadien-1-oxy)-2-(imidazol-1-yl)-ethan] | 3,3 (0,5) mm | 139,3% | 41,2% | 100% | 100% | –
2 | c1ccc(-c2ccc(C(c3ccccc3)n3ccnc3)cc2)cc1 (stereo not shown) [Bifonazol, reference compound] | 4,6 (1,5) mm | 100,0% | – | – | – | –
3 | CC(C)=CCC/C(C)=C\COC(CCn1ccnc1)c1cccs1 (racemic) [Beispiel 40] | 2,8 (1,7) mm | 164,2% | – | – | – | –
4 | CC(C)=CCC/C(C)=C\COC(Cn1ccnc1)c1ccccn1 (racemic) [Beispiel 46] | 2,8 (1,6) mm | 164,2% | – | – | – | –
5 | CC(C)=CCC/C(C)=C\COC(Cn1cncn1)c1ccc(Cl)s1 (racemic) [Beispiel 42] | – | – | 50,0% | 100% | 100% | –
6 | CC(C)=CCC/C(C)=C\COC(Cn1ccnc1)c1ccco1 (racemic) [Beispiel 47] | 3,6 (0,8) mm | 127,7% | – | – | – | –
7 | CC(C)NCC(O)COc1cccc2ccccc12 (stereo not shown) [Propranolol, reference compound] | – | – | 0% | 10% | 30% | Hemmwirkung zeigte
8 | CC(C)=CCC/C(C)=C\COC(Cn1cncn1)c1ccc(Cl)cc1Cl (racemic) [Beispiel 5] | 2,6 (1,5) mm | 176,9% | – | – | – | –
